Measured values as given in publication PMC5041104, “Structure-based discovery of two antiviral inhibitors targeting the NS3 helicase of Japanese encephalitis virus” (Scientific Reports, 2016).

What was measured:
[1] = target: JEV NS3 helicase (ATPase activity) (Japanese encephalitis virus, UniProt P27395); assay: Effect on the ATPase activity of NS3 helicase (Kinase-Glo Plus luminescence); type: biochemical; settings: 200 μM compound, 30 min
Description: The effect of each compound on ATPase activity was tested using a nonradioactive method as previously described. […] The reaction mixture comprised 3 μM of recombinant NS3 helicase and 100 μM ATP in ATPase reaction buffer (20 mM Tris-HCl pH 8.0, 50 mM NaCl, 10 mM MgCl2). Three reactions were conducted for each test. After incubation at 37 °C for 30 min, an equal volume of Kinase-Glo Plus reagent (Promega) was added to each well to quantitate the remaining ATP. The luminescence value of each well was tested by an Infinite 200 PRO multimode reader.

JEV [2] = assay: Antiviral effect by Western blot of JEV envelope (E) protein in BHK-21 cells; type: cell-based, Japanese encephalitis virus; settings: 48 h, normalized to GAPDH; for reduction of expression of E protein: 20 μM, relative to non-compound treated group
JEV [3] = assay: Plaque reduction assay in BHK-21 cells; settings: 48 h, untreated control 3.03 × 10^6 PFU/mL
[4] = Compound cytotoxicity (cell viability); settings: hamster
JEV [5] = assay: Antiviral effect by indirect immunofluorescence assay (IFA) of NS5 in BHK-21 cells; settings: 48 h, JEV-infected control 84.03%
[6] = target: JEV NS3 helicase (unwinding activity) (Japanese encephalitis virus, UniProt P27395); assay: NS3 helicase unwinding inhibition, fluorescence resonance energy transfer (FRET) assay; settings: for highest inhibitory level on NS3 helicase unwinding activity: concentration-dependent inhibition, levels reaching as high as; for inhibition of NS3 unwinding activity in helicase inhibitor screening: screening of 41 selected compounds, FRET assay
Sequence of JEV NS3 helicase (unwinding activity) (P27395 1684-2123): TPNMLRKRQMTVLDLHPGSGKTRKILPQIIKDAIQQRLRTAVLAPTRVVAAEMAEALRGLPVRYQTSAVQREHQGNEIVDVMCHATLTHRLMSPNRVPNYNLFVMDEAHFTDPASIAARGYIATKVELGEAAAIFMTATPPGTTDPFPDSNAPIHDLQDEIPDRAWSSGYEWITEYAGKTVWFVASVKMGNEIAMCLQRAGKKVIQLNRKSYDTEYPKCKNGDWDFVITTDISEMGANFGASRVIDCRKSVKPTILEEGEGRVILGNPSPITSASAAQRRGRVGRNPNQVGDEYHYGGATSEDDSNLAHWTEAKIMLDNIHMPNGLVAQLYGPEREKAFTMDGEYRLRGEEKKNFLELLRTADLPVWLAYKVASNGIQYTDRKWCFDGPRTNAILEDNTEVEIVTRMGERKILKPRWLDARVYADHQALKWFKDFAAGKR

JEV [7] = assay: Determination of EC50 (CPE inhibition, Celltiter-Glo cell viability of JEV-infected BHK-21 cells); settings: Japanese encephalitis virus, BHK-21, 120 h, read-out: 50% effective concentration (EC50)
WNV NS2B-NS3 protease = settings: cited from earlier work
WNV = WNV in cells; read-out: EC50, inhibitory effect on the virus in cells; cited from earlier work

Sequence of JEV NS3 helicase (ATPase activity) (P27395 1684-2123): as above

Compound	inhibition of ATPase activity of NS3 helicase [1]	reduction of expression of E protein (JEV [2])	average virus titer (JEV [3]; 20 μM)	average virus titer (JEV [3]; 30 μM)	average virus titer (JEV [3]; 40 μM)	CC50 at 120 h [4]	level of JEV-positive cells (NS5 positive) (JEV [5]; 5 μM)	level of JEV-positive cells (NS5 positive) (JEV [5]; 25 μM)	IC50 [6]	highest inhibitory level on NS3 helicase unwinding activity [6]	inhibition of NS3 unwinding activity in helicase inhibitor screening [6]	EC50 (JEV [7])	inhibition of E protein expression (JEV [2]; 5 μM)	average virus titer (JEV [3]; 10 μM)	viability at 120 h, 200 µM [4]	Ki (WNV NS2B-NS3 protease)	EC50 (WNV)
CS(=O)(=O)c1ccc2nc(NC(=O)c3ccc(Cn4cc([N+](=O)[O-])cn4)cc3)sc2c1 [compound 1]	do not inhibit the ATPase activity	70.1%	2.7 × 10^4 PFU/mL	2.1 × 10^4 PFU/mL	8.9 × 10^3 PFU/mL	168 µM	58.71%	13.29%	148 µM	79%	more than 60%	25.7 µM					
CCCC(=O)Nc1nc2ccc(NC(=S)NC(=O)c3cccs3)cc2s1 [compound 2]	do not inhibit the ATPase activity	94.8%	3.6 × 10^4 PFU/mL	2.6 × 10^4 PFU/mL	1.8 × 10^4 PFU/mL		50.40%	10.07%	150 µM	73%	more than 60%	23.5 µM	86.3%	4.65 × 10^4 PFU/mL	> 60%		
phenacetyl-KKR-Aldehyde																0.009 µM	1.6 µM
